Measured values: patent US8471004B2, “Bicyclic compounds” (Hoffman-La Roche Inc., priority 2009, dated 2013)

Biological target: T1, human chemokine receptor 2 isoform B (Homo sapiens, UniProt P41597)
T1 construct: host or cells: CHOK1-CCR2B-A5 (CHO-K1)
T1 sequence (P41597 1-360 isoform P41597-2): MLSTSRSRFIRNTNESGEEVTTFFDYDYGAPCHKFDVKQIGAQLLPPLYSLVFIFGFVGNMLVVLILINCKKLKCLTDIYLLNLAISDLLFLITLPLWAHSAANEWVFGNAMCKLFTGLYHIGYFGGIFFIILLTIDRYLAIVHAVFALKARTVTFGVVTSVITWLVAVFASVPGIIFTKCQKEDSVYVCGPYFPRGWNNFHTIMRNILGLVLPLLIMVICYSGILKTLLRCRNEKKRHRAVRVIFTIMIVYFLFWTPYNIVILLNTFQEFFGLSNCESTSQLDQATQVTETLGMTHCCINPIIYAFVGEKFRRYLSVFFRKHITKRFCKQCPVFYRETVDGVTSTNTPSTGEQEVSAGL
Test: Calcium mobilization assay (CHOK1-CCR2B-A5 cells, FLIPR, MCP-1 stimulated)
Format: cell-based
Conditions: Ca mobilisation assay for CCR2, antagonist activity, 50% inhibition of specific calcium increases after 20 nM MCP-1
Method: CHOK1-CCR2B-A5 cells (from Euroscreen) stably overexpressing the human chemokine receptor 2 isoform B were cultured in Nutrient Hams F12 medium supplemented with 5% FBS, 100 U/ml penicillin, 100 μg/ml streptomycin, 400 μg/ml G418 and 5 μg/ml puromycin.
For the assay cells were grown overnight in 384-well black clear flat bottom polystyrene plates (Costar) at 37° C. at 5% CO2. After washing with DMEM, 20 mM Hepes, 2.5 mM probenecid, 0.1% BSA (DMEM assay buffer) cells were loaded with 4 μM Fluo-4 in the same DMEM assay buffer for 2 hours at 30° C. Excess dye was removed and cells were washed with DMEM assay buffer. 384-well compound plates were prepared with DMEM assay buffer/0.5% DMSO with or without various concentrations of test compounds. Usually compounds were tested for agonist and antagonist activity.
Test compounds were added to the assay plate and agonist activity was monitored as fluorescence for 80 seconds with a FLIPR (488 nm excitation; 510-570 nm emission; Molecular Devices). After 20-30 min. of incubation at 30° C., 20 nM MCP-1 (R&D; Roche) was added and fluorescence was monitored again for 80 seconds. Increases in intracellular calcium are reported as maximum fluorescence after agonist exposure minus basal fluorescence before exposure. Antagonist activity is indicated as inhibitor concentration required for 50% inhibition of specific calcium increases.

Row | SMILES | IC50
1 | C[C@H]1C(=O)N2[C@@H](CCN3CCC4(CC4)[C@H](O)C3)CO[C@H]2CN1C(=O)Nc1ccc(Cl)c(Cl)c1 [Example 1, (3S,6S,8aS)-3-[2-((S)-4-Hydroxy-6-aza-spiro[2.5]oct-6-yl)-ethyl]-6-methyl-5-oxo-hexahydro-oxazolo[3,2-a]pyrazine-7-carboxylic acid (3,4-dichloro-phenyl)-amide] | 5.8 nM
2 | C[C@H]1C(=O)N2[C@@H](CCN3CCC4(CC4)[C@H](O)C3)CO[C@@H]2CN1C(=O)Nc1ccc(Cl)c(Cl)c1 [Example 2, (3S,6S,8aR)-3-[2-((S)-4-hydroxy-6-aza-spiro[2.5]oct-6-yl)-ethyl]-6-methyl-5-oxo-hexahydro-oxazolo[3,2-a]pyrazine-7-carboxylic acid (3,4-dichloro-phenyl)-amide] | 2.2 nM
3 | C[C@H]1C(=O)N2C(CN1C(=O)Nc1cccc(Cl)c1)OC[C@@H]2CCN1CCC2(CC2)[C@H](O)C1 (stereo partly drawn) [Example 3, (3S,6S)-3-[2-((S)-4-Hydroxy-6-aza-spiro[2.5]oct-6-yl)-ethyl]-6-methyl-5-oxo-hexahydro-oxazolo[3,2-a]pyrazine-7-carboxylic acid (3-chloro-phenyl)-amide] | 60.4 nM
4 | C[C@H]1C(=O)N2C(CN1C(=O)Nc1ccc(F)c(Cl)c1)OC[C@@H]2CCN1CCC2(CC2)[C@H](O)C1 (stereo partly drawn) [Example 4, (3S,6S)-3-[2-((S)-4-Hydroxy-6-aza-spiro[2.5]oct-6-yl)-ethyl]-6-methyl-5-oxo-hexahydro-oxazolo[3,2-a]pyrazine-7-carboxylic acid (3-chloro-4-fluoro-phenyl)-amide] | 16 nM
5 | C[C@H]1C(=O)N2C(CN1C(=O)Nc1cccc(C(F)(F)F)c1)OC[C@@H]2CCN1CCC2(CC2)[C@H](O)C1 (stereo partly drawn) [Example 5, (3S,6S)-3-[2-((S)-4-Hydroxy-6-aza-spiro[2.5]oct-6-yl)-ethyl]-6-methyl-5-oxo-hexahydro-oxazolo[3,2-a]pyrazine-7-carboxylic acid (3-trifluoromethyl-phenyl)-amide] | 67.9 nM
6 | C[C@H]1C(=O)N2[C@@H](CCN3CCC4(CC4)[C@H](O)C3)CO[C@H]2CN1C(=O)Nc1ccc(F)c(Cl)c1 [Example 6, (3S,6S,8aS)-3-[2-((S)-4-Hydroxy-6-aza-spiro[2.5]oct-6-yl)-ethyl]-6-methyl-5-oxo-hexahydro-oxazolo[3,2-a]pyrazine-7-carboxylic acid (3-chloro-4-fluoro-phenyl)-amide] | 72 nM
7 | C[C@H]1C(=O)N2[C@@H](CCN3CCC4(CC4)[C@H](O)C3)CO[C@@H]2CN1C(=O)Nc1ccc(F)c(Cl)c1 [Example 7, (3S,6S,8aR)-3-[2-((S)-4-hydroxy-6-aza-spiro[2.5]oct-6-yl)-ethyl]-6-methyl-5-oxo-hexahydro-oxazolo[3,2-a]pyrazine-7-carboxylic acid (3-chloro-4-fluoro-phenyl)-amide] | 25 nM
8 | C[C@H]1C(=O)N2[C@@H](CCN3CCC4(CC4)[C@H](O)C3)CO[C@H]2CN1C(=O)Nc1cccc(C(F)(F)F)c1 [Example 8, (3S,6S,8aS)-3-[2-((S)-4-Hydroxy-6-aza-spiro[2.5]oct-6-yl)-ethyl]-6-methyl-5-oxo-hexahydro-oxazolo[3,2-a]pyrazine-7-carboxylic acid (3-trifluoromethyl-phenyl)-amide] | 146 nM
9 | C[C@H]1C(=O)N2[C@@H](CCN3CCC4(CC4)[C@H](O)C3)CO[C@@H]2CN1C(=O)Nc1cccc(C(F)(F)F)c1 [Example 9, (3S,6S,8aR)-3-[2-((S)-4-hydroxy-6-aza-spiro[2.5]oct-6-yl)-ethyl]-6-methyl-5-oxo-hexahydro-oxazolo[3,2-a]pyrazine-7-carboxylic acid (3-trifluoromethyl-phenyl)-amide] | 68.9 nM
10 | C[C@H]1C(=O)N2[C@@H](CCCN3CCC4(CC4)[C@H](O)C3)COC2(C)CN1C(=O)Nc1ccc(Cl)c(Cl)c1 (stereo partly drawn) [Example 12, (3S,6S)-3-[3-((S)-4-Hydroxy-6-aza-spiro[2.5]oct-6-yl)-propyl]-6,8a-dimethyl-5-oxo-hexahydro-oxazolo[3,2-a]pyrazine-7-carboxylic acid (3,4-dichloro-phenyl)-amide] | 12 nM
11 | C[C@H]1C(=O)N2[C@@H](CCCN3CCC4(CC4)[C@H](O)C3)COC2(C)CN1C(=O)Nc1ccc(C(F)(F)F)c(Cl)c1 (stereo partly drawn) [Example 13, (3S,6S)-3-[3-((S)-4-Hydroxy-6-aza-spiro[2.5]oct-6-yl)-propyl]-6,8a-dimethyl-5-oxo-hexahydro-oxazolo[3,2-a]pyrazine-7-carboxylic acid (3-chloro-4-trifluoromethyl-phenyl)-amide] | 12.7 nM

The remaining lines, values ahead:

Row | IC50 | SMILES
12 | 8.8 nM | C[C@H]1C(=O)N2[C@H](CCN3CCC4(CC4)[C@H](O)C3)CCC[C@@H]2CN1C(=O)Nc1ccc(Cl)c(Cl)c1 (racemic) [Example 38, (3S,9aR)-6-[2-((S)-4-Hydroxy-6-aza-spiro[2.5]oct-6-yl)-ethyl]-3-methyl-4-oxo-octahydro-pyrido[1,2-a]pyrazine-2-carboxylic acid (3,4-dichloro-phenyl)-amide]
13 | 11.1 nM | C[C@H]1C(=O)N2[C@@H](CCN3CCC4(CC4)[C@H](O)C3)CO[C@]2(C)CN1C(=O)Nc1ccc(Cl)c(Cl)c1 [Example 14, (3S,6S,8aR)-3-[2-((S)-4-Hydroxy-6-aza-spiro[2.5]oct-6-yl)-ethyl]-6,8a-dimethyl-5-oxo-hexahydro-oxazolo[3,2-a]pyrazine-7-carboxylic acid (3,4-dichloro-phenyl)-amide]
14 | 32.8 nM | C[C@H]1C(=O)N2C(CN1C(=O)Nc1cccc(Cl)c1)OC[C@@H]2CCCN1CCC2(CC2)[C@H](O)C1 (stereo partly drawn) [Example 15, (3S,6S)-3-[3-((S)-4-Hydroxy-6-aza-spiro[2.5]oct-6-yl)-propyl]-6-methyl-5-oxo-hexahydro-oxazolo[3,2-a]pyrazine-7-carboxylic acid (3-chloro-phenyl)-amide]
15 | 7.4 nM | C[C@H]1C(=O)N2C(CN1C(=O)Nc1ccc(Cl)c(Cl)c1)OC[C@@H]2CCCN1CCC2(CC2)[C@H](O)C1 (stereo partly drawn) [Example 16, (3S,6S)-3-[3-((S)-4-Hydroxy-6-aza-spiro[2.5]oct-6-yl)-propyl]-6-methyl-5-oxo-hexahydro-oxazolo[3,2-a]pyrazine-7-carboxylic acid (3,4-dichloro-phenyl)-amide]
16 | 2.9 nM | C[C@H]1C(=O)N2[C@@H](CCCN3CCC4(CC4)[C@H](O)C3)CO[C@H]2CN1C(=O)Nc1ccc(Cl)c(Cl)c1 [Example 17, (3S,6S,8aS)-3-[3-((S)-4-Hydroxy-6-aza-spiro[2.5]oct-6-yl)-propyl]-6-methyl-5-oxo-hexahydro-oxazolo[3,2-a]pyrazine-7-carboxylic acid (3,4-dichloro-phenyl)-amide]
17 | 10.2 nM | C[C@H]1C(=O)N2[C@@H](CCCN3CCC4(CC4)[C@H](O)C3)CO[C@@H]2CN1C(=O)Nc1ccc(Cl)c(Cl)c1 [Example 18, (3S,6S,8aR)-3-[3-((S)-4-hydroxy-6-aza-spiro[2.5]oct-6-yl)-propyl]-6-methyl-5-oxo-hexahydro-oxazolo[3,2-a]pyrazine-7-carboxylic acid (3,4-dichloro-phenyl)-amide]
18 | 33.4 nM | C[C@H]1C(=O)N2[C@@H](CCCN3CCC4(CC4)[C@H](O)C3)CO[C@H]2CN1C(=O)Nc1cccc(Cl)c1 [Example 19, (3S,6S,8aS)-3-[3-((S)-4-Hydroxy-6-aza-spiro[2.5]oct-6-yl)-propyl]-6-methyl-5-oxo-hexahydro-oxazolo[3,2-a]pyrazine-7-carboxylic acid (3-chloro-phenyl)-amide]
19 | 177 nM | C[C@H]1C(=O)N2[C@@H](CCCN3CCC4(CC4)[C@H](O)C3)CO[C@@H]2CN1C(=O)Nc1cccc(Cl)c1 [Example 20, (3S,6S,8aR)-3-[3-((S)-4-hydroxy-6-aza-spiro[2.5]oct-6-yl)-propyl]-6-methyl-5-oxo-hexahydro-oxazolo[3,2-a]pyrazine-7-carboxylic acid (3-chloro-phenyl)-amide]
20 | 3.8 nM | C[C@H]1C(=O)N2[C@@H](CCCN3CCC4(CC4)[C@H](O)C3)CO[C@@]2(C)CN1C(=O)Nc1ccc(Cl)c(Cl)c1 [Example 21, (3S,6S,8aS)-3-[3-((S)-4-Hydroxy-6-aza-spiro[2.5]oct-6-yl)-propyl]-6,8a-dimethyl-5-oxo-hexahydro-oxazolo[3,2-a]pyrazine-7-carboxylic acid (3,4-dichloro-phenyl)-amide]
21 | 27.4 nM | C[C@H]1C(=O)N2[C@@H](CCCN3CCC4(CC4)[C@H](O)C3)CO[C@]2(C)CN1C(=O)Nc1ccc(Cl)c(Cl)c1 [Example 22, (3S,6S,8aR)-3-[3-((S)-4-hydroxy-6-aza-spiro[2.5]oct-6-yl)-propyl]-6,8a-dimethyl-5-oxo-hexahydro-oxazolo[3,2-a]pyrazine-7-carboxylic acid (3,4-dichloro-phenyl)-amide]
